# Data as given in US5424456A, “N-arylalkylderivatives of 2-aminomethyl-2,3-dihydro-1,4-benzodioxine and the process of preparation thereof” (Vyzkumny Ustav Pro Farmacii A Biochemii s.p., priority 1991, dated 1995).
# Where two headings read alike, the source gives them in different places.
# Columns and labels:
# blood pressure [1] = experiment: Hypotensive activity, pentobarbital anaesthesized dogs; format: in vivo, dog
# From the text: b) The blood pressure of pentobarbital anaesthesized dogs was registered invasively in arteria femoralis. The average decrease in systolic (SBP) arid diastolic (DBP) blood pressure expressed in per cents of the starting blood pressure level after intravenous and oral administration is shown in Tables 5 and 6.
# α-adrenergic [2] = experiment: α-adrenergic blocking activity, postdecapitation muscular contractions in rats; format: in vivo, rat; settings: i.v., 4.2 g/kg (so in the source), 30 minutes prior to decapitation
# Experimental: b) The α-adrenergic blocking activity of compounds VUFB 17951 and VUFB 17959 was also shown in the test of influencing the postdecapitation muscular contractions in rats. The test compounds were administered intravenously in the dose of 4.6 mg/kg for VUFB 17951 and […] for VUFB 17959.
# blood pressure [3] = experiment: Hypotensive activity, conscious monkeys; format: in vivo, Macaca mulatta
# Experimental: c) The blood pressure of conscious monkeys (Macaca mulatta) was measured non-invasively on the arm. The average decrease in systolic (SBP) and diastolic (DBP) blood pressure after intravenous and oral administration was expressed in per cents of the starting blood pressure.
# [4] = system: rat peripheral venous thrombosis; experiment: Antithrombotic activity, rat peripheral venous thrombosis in closed abdominal part of vena cava; format: in vivo; settings: rats, read-out: statistically significant effective dose (mass of thrombi)
# Experimental: The antithrombotic activity of the test compounds was established using the model of rat peripheral venous thrombosis in a closed abdominal part of vena cava. The thrombus was induced by intravenous administration of hypotonic solution of sodium chloride. The thrombus was freed 10 minutes after induction and weighted. The mass of thrombi in control animals was compared to the mass of thrombi of animals administered by the test compound. The statistically significant effective dose for compound VUFB 17951 was 0.5 mg/kg intravenously and 5 mg/kg orally and for the compound VUFB 17959 0.25 mg/kg and 1.0 mg/kg, respectively. The corresponding dose of a standard (Cilostazol, generic name, Merck index, 11th Edition, 2277) was 25 mg/kg orally.
# intraocular pressure = experiment: Effect on the intraocular pressure; format: in vivo, rabbit; settings: rabbits, topical intraocular administration
# [5] = system: urinary bladder sphincter; experiment: Effect on the opening pressure of the urinary bladder sphincter; format: in vivo, rat; settings: rats, compared with prazosin or terazosin
# α-adrenergic [6] = target: T1, α-adrenergic (Rattus norvegicus, UniProt P23944); experiment: α-adrenergic blocking activity, norepinephrine-induced contraction of helically cut rat aortic strip; settings: 37° C., cumulative doses, read-out: IC50 (concentration causing 50% relaxation)
# T1 construct: helically cut rat aortic strip; from tissue; host or cells: rat aorta (helically cut strip)
# T1 sequence (P23944 1-561): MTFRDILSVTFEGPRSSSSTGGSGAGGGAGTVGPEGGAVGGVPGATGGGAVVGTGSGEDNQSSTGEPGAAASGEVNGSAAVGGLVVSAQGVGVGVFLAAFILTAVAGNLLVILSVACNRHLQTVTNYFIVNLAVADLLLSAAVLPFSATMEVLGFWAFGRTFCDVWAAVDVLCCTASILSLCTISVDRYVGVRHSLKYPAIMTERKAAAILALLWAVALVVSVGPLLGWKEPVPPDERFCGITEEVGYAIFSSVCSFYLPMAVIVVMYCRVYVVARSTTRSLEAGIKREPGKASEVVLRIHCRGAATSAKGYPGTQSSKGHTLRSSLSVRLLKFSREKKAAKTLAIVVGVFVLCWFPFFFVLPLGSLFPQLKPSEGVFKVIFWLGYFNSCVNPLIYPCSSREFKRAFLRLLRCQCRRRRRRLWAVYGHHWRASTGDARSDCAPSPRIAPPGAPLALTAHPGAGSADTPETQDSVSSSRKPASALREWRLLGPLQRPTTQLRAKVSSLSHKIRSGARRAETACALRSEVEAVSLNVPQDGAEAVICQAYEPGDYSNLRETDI
# Experimental: a) The α-adrenergic blocking activity of the compounds was tested using a helically cut rat aortic strip in a Krebs-Henselheit solution at 37° C., bubbled with a mixture of 95% O2 and 5% CO2. Norepinephrine induced contractions were detected isometrically. The compounds were added in cumulative doses and the relaxing activity was expressed in per cents of the maximum norepinephrine contraction.
# [7] = i.v., 0.45 mg/kg, value 1 of 5 (heads 5/30/60/180 min; probably 1 min)
# [8] = i.v., 0.45 mg/kg, value 2 of 5 (heads 5/30/60/180 min; probably 5 min)
# [9] = i.v., 0.45 mg/kg, value 3 of 5 (heads 5/30/60/180 min; probably 30 min)
# [10] = i.v., 0.45 mg/kg, value 4 of 5 (heads 5/30/60/180 min; probably 60 min)
# [11] = i.v., 0.45 mg/kg, value 5 of 5 (heads 5/30/60/180 min; probably 180 min)
# [12] = i.v., 4.5 mg/kg, value 1 of 5 (heads 5/30/60/180 min; probably 1 min)
# [13] = i.v., 4.5 mg/kg, value 2 of 5 (heads 5/30/60/180 min; probably 5 min)
# [14] = i.v., 4.5 mg/kg, value 3 of 5 (heads 5/30/60/180 min; probably 30 min)
# [15] = i.v., 4.5 mg/kg, value 4 of 5 (heads 5/30/60/180 min; probably 60 min)
# [16] = i.v., 4.5 mg/kg, value 5 of 5 (heads 5/30/60/180 min; probably 180 min)
compound,measurement,setting,value
"Cc1ccccc1C(C#N)(CCCNCC1COc2ccccc2O1)C(C)C (racemic) [VUFB 17959, 5-(2,3-dihydro-1,4-benzodioxin-2-ylmethylamino)-2-isopropyl-2-(2-methylphenyl) valeronitrile]",decrease in diastolic blood pressure (DBP),blood pressure [1]; [7],-52 per cents
same,decrease in systolic blood pressure (SBP),blood pressure [1]; [7],-16 per cents
same,decrease in diastolic blood pressure (DBP),blood pressure [1]; [8],-23 per cents
same,decrease in systolic blood pressure (SBP),blood pressure [1]; [8],-23 per cents
same,decrease in diastolic blood pressure (DBP),blood pressure [1]; [9],-16 per cents
same,decrease in systolic blood pressure (SBP),blood pressure [1]; [9],-14 per cents
same,decrease in diastolic blood pressure (DBP),blood pressure [1]; [10],-16 per cents
same,decrease in systolic blood pressure (SBP),blood pressure [1]; [10],-13 per cents
same,decrease in diastolic blood pressure (DBP),blood pressure [1]; [11],-2 per cents
same,decrease in systolic blood pressure (SBP),blood pressure [1]; [11],-6 per cents
same,decrease in diastolic blood pressure (DBP),blood pressure [1]; [12],-63 per cents
same,decrease in systolic blood pressure (SBP),blood pressure [1]; [12],-43 per cents
same,decrease in diastolic blood pressure (DBP),blood pressure [1]; [13],-46 per cents
same,decrease in systolic blood pressure (SBP),blood pressure [1]; [13],-43 per cents
same,decrease in diastolic blood pressure (DBP),blood pressure [1]; [14],-29 per cents
same,decrease in systolic blood pressure (SBP),blood pressure [1]; [14],-31 per cents
same,decrease in diastolic blood pressure (DBP),blood pressure [1]; [15],-25 per cents
same,decrease in systolic blood pressure (SBP),blood pressure [1]; [15],-23 per cents
same,decrease in diastolic blood pressure (DBP),blood pressure [1]; [16],-14 per cents
same,decrease in systolic blood pressure (SBP),blood pressure [1]; [16],-17 per cents
same,decrease in diastolic blood pressure (DBP),"blood pressure [1]; p.o., 4.2 mg/kg, 15 min",-5 per cents
same,decrease in systolic blood pressure (SBP),"blood pressure [1]; p.o., 4.2 mg/kg, 15 min",-5 per cents
same,decrease in diastolic blood pressure (DBP),"blood pressure [1]; p.o., 4.2 mg/kg, 30 min",-20 per cents
same,decrease in systolic blood pressure (SBP),"blood pressure [1]; p.o., 4.2 mg/kg, 30 min",-16 per cents
same,decrease in diastolic blood pressure (DBP),"blood pressure [1]; p.o., 4.2 mg/kg, 60 min",-20 per cents
same,decrease in systolic blood pressure (SBP),"blood pressure [1]; p.o., 4.2 mg/kg, 60 min",-18 per cents
same,decrease in diastolic blood pressure (DBP),"blood pressure [1]; p.o., 4.2 mg/kg, 120 min",-20 per cents
same,decrease in systolic blood pressure (SBP),"blood pressure [1]; p.o., 4.2 mg/kg, 120 min",-20 per cents
same,decrease in diastolic blood pressure (DBP),"blood pressure [1]; p.o., 4.2 mg/kg, 300 min",-21 per cents
same,decrease in systolic blood pressure (SBP),"blood pressure [1]; p.o., 4.2 mg/kg, 300 min",-23 per cents
same,decrease in number of postdecapitation contractions,α-adrenergic [2],highly significant decrease in number of postdecapitation contractions
same,decrease in diastolic blood pressure (DBP),"blood pressure [3]; i.v., 0.25 mg/kg, 1 min",-4 per cents
same,decrease in systolic blood pressure (SBP),"blood pressure [3]; i.v., 0.25 mg/kg, 1 min",-1 per cents
same,decrease in diastolic blood pressure (DBP),"blood pressure [3]; i.v., 0.25 mg/kg, 5 min",-16 per cents
same,decrease in systolic blood pressure (SBP),"blood pressure [3]; i.v., 0.25 mg/kg, 5 min",-12 per cents
same,decrease in diastolic blood pressure (DBP),"blood pressure [3]; i.v., 0.25 mg/kg, 30 min",-24 per cents
same,decrease in systolic blood pressure (SBP),"blood pressure [3]; i.v., 0.25 mg/kg, 30 min",-22 per cents
same,decrease in diastolic blood pressure (DBP),"blood pressure [3]; i.v., 0.25 mg/kg, 60 min",-20 per cents
same,decrease in systolic blood pressure (SBP),"blood pressure [3]; i.v., 0.25 mg/kg, 60 min",-17 per cents
same,decrease in diastolic blood pressure (DBP),"blood pressure [3]; i.v., 0.25 mg/kg, 180 min",-7 per cents
same,decrease in systolic blood pressure (SBP),"blood pressure [3]; i.v., 0.25 mg/kg, 180 min",-5 per cents
same,decrease in diastolic blood pressure (DBP),"blood pressure [3]; i.v., 1.0 mg/kg, 1 min",-34 per cents
same,decrease in systolic blood pressure (SBP),"blood pressure [3]; i.v., 1.0 mg/kg, 1 min",-28 per cents
same,decrease in diastolic blood pressure (DBP),"blood pressure [3]; i.v., 1.0 mg/kg, 5 min",-38 per cents
same,decrease in systolic blood pressure (SBP),"blood pressure [3]; i.v., 1.0 mg/kg, 5 min",-31 per cents
same,decrease in diastolic blood pressure (DBP),"blood pressure [3]; i.v., 1.0 mg/kg, 30 min",-42 per cents
same,decrease in systolic blood pressure (SBP),"blood pressure [3]; i.v., 1.0 mg/kg, 30 min",-31 per cents
same,decrease in diastolic blood pressure (DBP),"blood pressure [3]; i.v., 1.0 mg/kg, 60 min",-27 per cents
same,decrease in systolic blood pressure (SBP),"blood pressure [3]; i.v., 1.0 mg/kg, 60 min",-24 per cents
same,decrease in diastolic blood pressure (DBP),"blood pressure [3]; i.v., 1.0 mg/kg, 180 min",-14 per cents
same,decrease in systolic blood pressure (SBP),"blood pressure [3]; i.v., 1.0 mg/kg, 180 min",-8 per cents
same,decrease in diastolic blood pressure (DBP),"blood pressure [3]; p.o., 10.0 mg/kg, 5-6 hours",-10 per cents
same,decrease in systolic blood pressure (SBP),"blood pressure [3]; p.o., 10.0 mg/kg, 5-6 hours",-11 per cents
same,decrease in diastolic blood pressure (DBP),"blood pressure [3]; p.o., 10.0 mg/kg, 0.5 hours",-16 per cents
same,decrease in systolic blood pressure (SBP),"blood pressure [3]; p.o., 10.0 mg/kg, 0.5 hours",-20 per cents
same,decrease in diastolic blood pressure (DBP),"blood pressure [3]; p.o., 10.0 mg/kg, 1 hours",-15 per cents
same,decrease in systolic blood pressure (SBP),"blood pressure [3]; p.o., 10.0 mg/kg, 1 hours",-15 per cents
same,decrease in diastolic blood pressure (DBP),"blood pressure [3]; p.o., 10.0 mg/kg, 3 hours",-16 per cents
same,decrease in systolic blood pressure (SBP),"blood pressure [3]; p.o., 10.0 mg/kg, 3 hours",-17 per cents
same,decrease in diastolic blood pressure (DBP),"blood pressure [3]; p.o., 10.0 mg/kg, 24 hours",+5 per cents
same,decrease in systolic blood pressure (SBP),"blood pressure [3]; p.o., 10.0 mg/kg, 24 hours",+1 per cents
same,minimal effective dose,"[4]; iv, intravenously",0.25 mg/kg
same,minimal effective dose,"[4]; po, orally",1 mg/kg
same,lowering of the intraocular pressure,intraocular pressure,lowered significantly the intraocular pressure
same,duration of action on opening pressure of the urinary bladder sphincter,[5],longer duration of action
same,lowering of the opening pressure of the urinary bladder sphincter,[5]; corresponding doses,lowered the opening pressure of the urinary bladder sphincter of rats in corresponding doses in the same extent as prazosin
same,IC50,α-adrenergic [6],25 µM
